{
  "source": "paper PMC9712021",
  "about": "(Advances in Pharmacological and Pharmaceutical Sciences, 2022)",
  "key": {"[1]": {"system": "Artemia salina", "test": "Artemia salina bioassay (brine shrimp lethality bioassay)", "procedure": "This test was carried out with a slight modification, as described by Amaral et al.. Briefly, shrimp cysts were incubated in a small aquarium containing a brine solution (50 mg of cysts and 300 mL of brine) for 48 h with direct lighting. […] […] In the negative (NC) and positive (PC) control groups, saline solution and potassium dichromate (K2Cr2O7) were added, respectively. The concentration range used in the case of the PC group was 31.25 to 500 μg/mL."}, "[2]": {"test": "Hemolytic activity in mice erythrocytes", "format": "cell-based, Mus musculus", "details": "male, Swiss albino, mouse, 37°C, 2 h", "procedure": "(§1) This test was performed on adult Swiss albino mouse (Mus musculus) erythrocytes. The mouse was collected from the Central Animal House of the Federal University of Piaui, Brazil. It was allowed free access to standard food and water ad libitum and was kept under controlled lighting (12 h dark/light cycles) at 24 ± 2°C. Blood was collected from the retro-orbital plexus of the mouse (male, 24 gm body weight). Hemolytic activity in mouse erythrocytes was performed, according to Jamialahmadi et al.."}, "[3]": {"system": "mouse erythrocytes", "test": "Hemolytic activity in mice erythrocytes", "format": "cell-based", "details": "31.25–500 μg/mL", "procedure": "as §1"}, "[4]": {"system": "S. cerevisiae EG103 (SODWT)", "test": "S. cerevisiae central disc test, oxidative damage, strain SODWT", "format": "cell-based, Saccharomyces cerevisiae", "text": "(§2) The central disc test was done according to the method presented by Islam et al.. Superoxide dismutase (CuZnSOD-Sod1) is a cytosolic enzyme that is faulty in strain EG118, whereas mitochondrial SOD is faulty in strain EG110 (MnSOD-Sod2). The strain EG133 has both Sod1 and Sod2 defects, while EG223 has a cytosolic catalase deficiency (Cat1). While EG103 is a competent strain that is identical to the wild-type (SODWT), EG is a dual isogenic strain for the Sod1 and Cat1 genes."}, "[5]": {"system": "S. cerevisiae EG118 (Sod1∆)", "test": "S. cerevisiae central disc test, oxidative damage, strain Sod1∆", "format": "cell-based, Saccharomyces cerevisiae", "text": "as §2"}, "[6]": {"system": "S. cerevisiae EG110 (Sod2∆)", "test": "S. cerevisiae central disc test, oxidative damage, strain Sod2∆", "format": "cell-based, Saccharomyces cerevisiae", "text": "as §2"}, "[7]": {"system": "S. cerevisiae EG133 (Sod1∆Sod2∆)", "test": "S. cerevisiae central disc test, oxidative damage, strain Sod1∆Sod2∆", "format": "cell-based, Saccharomyces cerevisiae", "text": "as §2"}, "[8]": {"system": "S. cerevisiae EG223 (Cat1∆)", "test": "S. cerevisiae central disc test, oxidative damage, strain Cat1∆", "format": "cell-based, Saccharomyces cerevisiae", "text": "as §2"}, "[9]": {"system": "S. cerevisiae EG (Sod1∆Cat1∆)", "test": "S. cerevisiae central disc test, oxidative damage, strain Sod1∆Cat1∆", "format": "cell-based, Saccharomyces cerevisiae", "text": "as §2"}, "[10]": {"system": "S. cerevisiae strains (SODWT, Sod1Δ, Sod2Δ, Cat1Δ, Sod1/Sod2Δ, Cat1Δ/Sod1Δ)", "test": "In vivo antioxidant (S. cerevisiae) test, all strains tested", "format": "cell-based, Saccharomyces cerevisiae", "text": "as §2"}},
  "data": [
    {"compound": "CC(C)CCCC(C)CCO", "note": "(stereo not shown) [3,7-Dimethyl-1-octanol, 3,7-dimethyl-1-octanol]", "values": [
      {"measurement": "cytotoxic effects in the A. Salina test", "setting": "[1]; 31.25–500 μg/mL", "value": "did not exhibit significant cytotoxic effects"},
      {"measurement": "concentration from which toxicity increased in a dose-dependent manner", "setting": "[1]; 48 h of exposure", "value": 125, "unit": "µg/mL"},
      {"measurement": "hemolysis at 2 h, 31.25 μg/mL", "setting": "[2]; mouse erythrocyte suspension, pH 7.4, 31.25 μg/mL", "value": "3.66 ± 0.64", "unit": "%"},
      {"measurement": "hemolysis at 2 h, 62.5 μg/mL", "setting": "[2]; mouse erythrocyte suspension, pH 7.4, 62.5 μg/mL", "value": "4.53 ± 0.06", "unit": "%"},
      {"measurement": "hemolysis at 2 h, 250 μg/mL", "setting": "[2]; mouse erythrocyte suspension, pH 7.4, 250 μg/mL", "value": "5.64 ± 0.74", "unit": "%"},
      {"measurement": "hemolysis at 2 h, 500 μg/mL", "setting": "[2]; mouse erythrocyte suspension, pH 7.4, 500 μg/mL", "value": "5.66 ± 0.56", "unit": "%"},
      {"measurement": "hemolysis at 2 h, 125 μg/mL", "setting": "[2]; pH 7.4, 125 μg/mL", "value": "5.33 ± 0.75", "unit": "%"},
      {"measurement": "cytotoxic effects in the hemolysis test", "setting": "[3]", "value": "did not exhibit significant cytotoxic effects"},
      {"measurement": "oxidative damage", "setting": "[4]; 0.9 μg/mL", "value": "1.50 ± 0.70"},
      {"measurement": "oxidative damage", "setting": "[4]; 1.8 μg/mL", "value": "1.50 ± 0.70"},
      {"measurement": "oxidative damage", "setting": "[4]; 7.2 μg/mL", "value": "2.50 ± 0.70"},
      {"measurement": "oxidative damage", "setting": "[4]; 14.4 μg/mL", "value": "2.00 ± 1.41"},
      {"measurement": "oxidative damage", "setting": "[4]; 32 μg/mL", "value": "2.00 ± 0.00"},
      {"measurement": "oxidative damage", "setting": "[4]; 64 μg/mL", "value": "1.50 ± 0.70"},
      {"measurement": "oxidative damage", "setting": "[4]; 128 μg/mL", "value": "1.00 ± 1.41"},
      {"measurement": "oxidative damage", "setting": "[4]; 3.6 mg/mL", "value": "2.00 ± 0.00"},
      {"measurement": "oxidative damage", "setting": "[4]; 256 mg/mL", "value": "0.50 ± 0.70"},
      {"measurement": "oxidative damage", "setting": "[4]; 500 mg/mL", "value": "2.50 ± 0.70"},
      {"measurement": "oxidative damage", "setting": "[5]; 0.9 μg/mL", "value": "0.50 ± 0.70"},
      {"measurement": "oxidative damage", "setting": "[5]; 1.8 μg/mL", "value": "0.00 ± 0.00"},
      {"measurement": "oxidative damage", "setting": "[5]; 7.2 μg/mL", "value": "1.00 ± 0.00"},
      {"measurement": "oxidative damage", "setting": "[5]; 14.4 μg/mL", "value": "1.00 ± 1.41"},
      {"measurement": "oxidative damage", "setting": "[5]; 32 μg/mL", "value": "2.50 ± 0.70"},
      {"measurement": "oxidative damage", "setting": "[5]; 64 μg/mL", "value": "3.00 ± 0.00"},
      {"measurement": "oxidative damage", "setting": "[5]; 128 μg/mL", "value": "1.50 ± 0.70"},
      {"measurement": "oxidative damage", "setting": "[5]; 3.6 mg/mL", "value": "1.50 ± 0.70"},
      {"measurement": "oxidative damage", "setting": "[5]; 256 mg/mL", "value": "2.50 ± 0.70"},
      {"measurement": "oxidative damage", "setting": "[5]; 500 mg/mL", "value": "3.00 ± 0.00"},
      {"measurement": "oxidative damage", "setting": "[6]; 0.9 μg/mL", "value": "1.50 ± 0.70"},
      {"measurement": "oxidative damage", "setting": "[6]; 1.8 μg/mL", "value": "2.00 ± 0.00"},
      {"measurement": "oxidative damage", "setting": "[6]; 7.2 μg/mL", "value": "2.50 ± 0.70"},
      {"measurement": "oxidative damage", "setting": "[6]; 14.4 μg/mL", "value": "1.50 ± 0.70"},
      {"measurement": "oxidative damage", "setting": "[6]; 32 μg/mL", "value": "3.00 ± 0.00"},
      {"measurement": "oxidative damage", "setting": "[6]; 64 μg/mL", "value": "1.00 ± 0.00"},
      {"measurement": "oxidative damage", "setting": "[6]; 128 μg/mL", "value": "1.50 ± 0.70"},
      {"measurement": "oxidative damage", "setting": "[6]; 3.6 mg/mL", "value": "2.50 ± 0.70"},
      {"measurement": "oxidative damage", "setting": "[6]; 256 mg/mL", "value": "1.00 ± 1.41"},
      {"measurement": "oxidative damage", "setting": "[6]; 500 mg/mL", "value": "2.50 ± 0.70"},
      {"measurement": "oxidative damage", "setting": "[7]; 0.9 μg/mL", "value": "1.50 ± 0.70"},
      {"measurement": "oxidative damage", "setting": "[7]; 1.8 μg/mL", "value": "1.00 ± 1.41"},
      {"measurement": "oxidative damage", "setting": "[7]; 7.2 μg/mL", "value": "2.50 ± 0.70"},
      {"measurement": "oxidative damage", "setting": "[7]; 14.4 μg/mL", "value": "2.00 ± 0.00"},
      {"measurement": "oxidative damage", "setting": "[7]; 32 μg/mL", "value": "2.50 ± 0.70"},
      {"measurement": "oxidative damage", "setting": "[7]; 64 μg/mL", "value": "3.50 ± 0.70"},
      {"measurement": "oxidative damage", "setting": "[7]; 128 μg/mL", "value": "3.50 ± 0.70"},
      {"measurement": "oxidative damage", "setting": "[7]; 3.6 mg/mL", "value": "2.00 ± 1.41"},
      {"measurement": "oxidative damage", "setting": "[7]; 256 mg/mL", "value": "3.00 ± 1.41"},
      {"measurement": "oxidative damage", "setting": "[7]; 500 mg/mL", "value": "2.50 ± 0.70"},
      {"measurement": "oxidative damage", "setting": "[8]; 0.9 μg/mL", "value": "2.50 ± 0.70"},
      {"measurement": "oxidative damage", "setting": "[8]; 1.8 μg/mL", "value": "3.50 ± 0.70"},
      {"measurement": "oxidative damage", "setting": "[8]; 7.2 μg/mL", "value": "4.00 ± 0.00"},
      {"measurement": "oxidative damage", "setting": "[8]; 14.4 μg/mL", "value": "3.50 ± 0.70"},
      {"measurement": "oxidative damage", "setting": "[8]; 32 μg/mL", "value": "3.50 ± 2.12"},
      {"measurement": "oxidative damage", "setting": "[8]; 64 μg/mL", "value": "3.50 ± 0.70"},
      {"measurement": "oxidative damage", "setting": "[8]; 128 μg/mL", "value": "3.50 ± 2.12"},
      {"measurement": "oxidative damage", "setting": "[8]; 3.6 mg/mL", "value": "2.50 ± 0.70"},
      {"measurement": "oxidative damage", "setting": "[8]; 256 mg/mL", "value": "2.50 ± 2.12"},
      {"measurement": "oxidative damage", "setting": "[8]; 500 mg/mL", "value": "3.00 ± 1.41"},
      {"measurement": "oxidative damage", "setting": "[9]; 0.9 μg/mL", "value": "2.50 ± 0.70"},
      {"measurement": "oxidative damage", "setting": "[9]; 1.8 μg/mL", "value": "3.00 ± 0.00"},
      {"measurement": "oxidative damage", "setting": "[9]; 7.2 μg/mL", "value": "3.00 ± 1.41"},
      {"measurement": "oxidative damage", "setting": "[9]; 14.4 μg/mL", "value": "2.00 ± 2.82"},
      {"measurement": "oxidative damage", "setting": "[9]; 32 μg/mL", "value": "3.50 ± 0.70"},
      {"measurement": "oxidative damage", "setting": "[9]; 64 μg/mL", "value": "3.00 ± 1.41"},
      {"measurement": "oxidative damage", "setting": "[9]; 128 μg/mL", "value": "4.00 ± 1.41"},
      {"measurement": "oxidative damage", "setting": "[9]; 256 μg/mL", "value": "3.00 ± 0.00"},
      {"measurement": "oxidative damage", "setting": "[9]; 3.6 mg/mL", "value": "4.00 ± 1.41"},
      {"measurement": "oxidative damage", "setting": "[9]; 500 mg/mL", "value": "3.50 ± 0.70"},
      {"measurement": "percentage modulation of oxidative damage caused by the stressor H2O2", "setting": "[10]; all strains and concentrations tested", "value": "more than 60%"},
      {"measurement": "induction of oxidative damage", "setting": "[10]; any concentration, any of the tested S. cerevisiae strains", "value": "did not induce oxidative damage"}
    ]},
    {"compound": "OO", "note": "[H2O2, hydrogen peroxide, reference compound]", "values": [
      {"measurement": "oxidative damage", "setting": "[4]; 10 mM, positive control", "value": "30.75 ± 5.0^∗∗"},
      {"measurement": "oxidative damage", "setting": "[5]; 10 mM, positive control", "value": "25.5 ± 4.2^∗∗"},
      {"measurement": "oxidative damage", "setting": "[6]; 10 mM, positive control", "value": "25.25 ± 6.18^∗∗"},
      {"measurement": "oxidative damage", "setting": "[7]; 10 mM, positive control", "value": "27.00 ± 5.09^∗∗"},
      {"measurement": "oxidative damage", "setting": "[8]; 10 mM, positive control", "value": "24.25 ± 4.03^∗∗"},
      {"measurement": "oxidative damage", "setting": "[9]; 10 mM, positive control", "value": "22.25 ± 4.57^∗∗"}
    ]}
  ]
}
